± gives the expanded uncertainty stated by the source.
assay: activity coefficient (dimensionless); of the first substance listed, at infinite dilution; xn = mol fraction of the nth substance listed; conditions: 312.55 K; 101 kPa; Liquid; Chromatography; x1 = 0

SMILES	activity coefficient
CC#N [acetonitrile] + CCn1cc[n+](C)c1.CS(=O)(=O)[O-]	1.26 ± 0.081
CCCC=O [butanal] + CCn1cc[n+](C)c1.CS(=O)(=O)[O-]	4.87 ± 0.33
ClCCl [dichloromethane] + CCn1cc[n+](C)c1.CS(=O)(=O)[O-]	0.471 ± 0.037
CCOCC [diethyl ether] + CCn1cc[n+](C)c1.CS(=O)(=O)[O-]	21.8 ± 1.5
CC(C)OC(C)C [diisopropyl ether] + CCn1cc[n+](C)c1.CS(=O)(=O)[O-]	84.5 ± 5.8
CCO [ethanol] + CCn1cc[n+](C)c1.CS(=O)(=O)[O-]	0.438 ± 0.035

same assay, conditions: 312.8 K; 101 kPa; Liquid; Chromatography; x1 = 0

SMILES	activity coefficient
c1ccccc1 [benzene] + CCCCCC[n+]1ccn(C)c1.FC(F)(F)C(F)(F)[P-](F)(F)(F)(C(F)(F)C(F)(F)F)C(F)(F)C(F)(F)F	0.517 ± 0.039
CCCCO [butan-1-ol] + CCCCCC[n+]1ccn(C)c1.FC(F)(F)C(F)(F)[P-](F)(F)(F)(C(F)(F)C(F)(F)F)C(F)(F)C(F)(F)F	4.9 ± 0.33
CCC(C)=O [butanone] + CCCCCC[n+]1ccn(C)c1.FC(F)(F)C(F)(F)[P-](F)(F)(F)(C(F)(F)C(F)(F)F)C(F)(F)C(F)(F)F	0.204 ± 0.029
C1CCCCCC1 [cycloheptane] + CCCCCC[n+]1ccn(C)c1.FC(F)(F)C(F)(F)[P-](F)(F)(F)(C(F)(F)C(F)(F)F)C(F)(F)C(F)(F)F	9.01 ± 0.61
C1CCCCC1 [cyclohexane] + CCCCCC[n+]1ccn(C)c1.FC(F)(F)C(F)(F)[P-](F)(F)(F)(C(F)(F)C(F)(F)F)C(F)(F)C(F)(F)F	4.78 ± 0.33
CCCCCCCCCC [decane] + CCCCCC[n+]1ccn(C)c1.FC(F)(F)C(F)(F)[P-](F)(F)(F)(C(F)(F)C(F)(F)F)C(F)(F)C(F)(F)F	22.7 ± 1.6
ClCCl [dichloromethane] + CCCCCC[n+]1ccn(C)c1.FC(F)(F)C(F)(F)[P-](F)(F)(F)(C(F)(F)C(F)(F)F)C(F)(F)C(F)(F)F	0.66 ± 0.045
CCOCC [diethyl ether] + CCCCCC[n+]1ccn(C)c1.FC(F)(F)C(F)(F)[P-](F)(F)(F)(C(F)(F)C(F)(F)F)C(F)(F)C(F)(F)F	0.837 ± 0.054
CC(C)OC(C)C [diisopropyl ether] + CCCCCC[n+]1ccn(C)c1.FC(F)(F)C(F)(F)[P-](F)(F)(F)(C(F)(F)C(F)(F)F)C(F)(F)C(F)(F)F	1.59 ± 0.1
CCCCCCCCCCCC [dodecane] + CCCCCC[n+]1ccn(C)c1.FC(F)(F)C(F)(F)[P-](F)(F)(F)(C(F)(F)C(F)(F)F)C(F)(F)C(F)(F)F	39.3 ± 2.7
CCO [ethanol] + CCCCCC[n+]1ccn(C)c1.FC(F)(F)C(F)(F)[P-](F)(F)(F)(C(F)(F)C(F)(F)F)C(F)(F)C(F)(F)F	2.1 ± 0.14
CCc1ccccc1 [ethylbenzene] + CCCCCC[n+]1ccn(C)c1.FC(F)(F)C(F)(F)[P-](F)(F)(F)(C(F)(F)C(F)(F)F)C(F)(F)C(F)(F)F	0.956 ± 0.06

same assay, conditions: 322.45 K; 101 kPa; Liquid; Chromatography; x1 = 0

SMILES	activity coefficient
CC#N [acetonitrile] + CCn1cc[n+](C)c1.CS(=O)(=O)[O-]	0.818 ± 0.053
CCCC=O [butanal] + CCn1cc[n+](C)c1.CS(=O)(=O)[O-]	4.95 ± 0.34
ClCCl [dichloromethane] + CCn1cc[n+](C)c1.CS(=O)(=O)[O-]	0.531 ± 0.039
CCOCC [diethyl ether] + CCn1cc[n+](C)c1.CS(=O)(=O)[O-]	20.4 ± 1.4
CC(C)OC(C)C [diisopropyl ether] + CCn1cc[n+](C)c1.CS(=O)(=O)[O-]	74.2 ± 5.1
CCO [ethanol] + CCn1cc[n+](C)c1.CS(=O)(=O)[O-]	0.418 ± 0.035

same assay, conditions: 322.55 K; 101 kPa; Liquid; Chromatography; x1 = 0

SMILES	activity coefficient
c1ccccc1 [benzene] + CCCCn1cc[n+](C)c1.O=S(=O)([N-]S(=O)(=O)C(F)(F)C(F)(F)F)C(F)(F)C(F)(F)F	1.01 ± 0.063
CCCCO [butan-1-ol] + CCCCn1cc[n+](C)c1.O=S(=O)([N-]S(=O)(=O)C(F)(F)C(F)(F)F)C(F)(F)C(F)(F)F	2.49 ± 0.17
CCC(C)=O [butanone] + CCCCn1cc[n+](C)c1.O=S(=O)([N-]S(=O)(=O)C(F)(F)C(F)(F)F)C(F)(F)C(F)(F)F	0.453 ± 0.036
C1CCCCCC1 [cycloheptane] + CCCCn1cc[n+](C)c1.O=S(=O)([N-]S(=O)(=O)C(F)(F)C(F)(F)F)C(F)(F)C(F)(F)F	19.8 ± 1.4
C1CCCCC1 [cyclohexane] + CCCCn1cc[n+](C)c1.O=S(=O)([N-]S(=O)(=O)C(F)(F)C(F)(F)F)C(F)(F)C(F)(F)F	7 ± 0.48
CCCCCCCCCC [decane] + CCCCn1cc[n+](C)c1.O=S(=O)([N-]S(=O)(=O)C(F)(F)C(F)(F)F)C(F)(F)C(F)(F)F	37.4 ± 2.6
ClCCl [dichloromethane] + CCCCn1cc[n+](C)c1.O=S(=O)([N-]S(=O)(=O)C(F)(F)C(F)(F)F)C(F)(F)C(F)(F)F	0.356 ± 0.033
CCOCC [diethyl ether] + CCCCn1cc[n+](C)c1.O=S(=O)([N-]S(=O)(=O)C(F)(F)C(F)(F)F)C(F)(F)C(F)(F)F	1.72 ± 0.12
CC(C)OC(C)C [diisopropyl ether] + CCCCn1cc[n+](C)c1.O=S(=O)([N-]S(=O)(=O)C(F)(F)C(F)(F)F)C(F)(F)C(F)(F)F	3.46 ± 0.24
CCCCCCCCCCCC [dodecane] + CCCCn1cc[n+](C)c1.O=S(=O)([N-]S(=O)(=O)C(F)(F)C(F)(F)F)C(F)(F)C(F)(F)F	77.8 ± 5.3
CCO [ethanol] + CCCCn1cc[n+](C)c1.O=S(=O)([N-]S(=O)(=O)C(F)(F)C(F)(F)F)C(F)(F)C(F)(F)F	1.65 ± 0.11
CCc1ccccc1 [ethylbenzene] + CCCCn1cc[n+](C)c1.O=S(=O)([N-]S(=O)(=O)C(F)(F)C(F)(F)F)C(F)(F)C(F)(F)F	2.04 ± 0.14

same assay, conditions: 323.1 K; 101 kPa; Liquid; Chromatography; x1 = 0

SMILES	activity coefficient
c1ccccc1 [benzene] + CCCCCCCCCCn1cc[n+](CCCCCCCCCC)c1C.O=S(=O)([N-]S(=O)(=O)C(F)(F)F)C(F)(F)F	0.429 ± 0.035
CCCCO [butan-1-ol] + CCCCCCCCCCn1cc[n+](CCCCCCCCCC)c1C.O=S(=O)([N-]S(=O)(=O)C(F)(F)F)C(F)(F)F	1.38 ± 0.09
CCC(C)=O [butanone] + CCCCCCCCCCn1cc[n+](CCCCCCCCCC)c1C.O=S(=O)([N-]S(=O)(=O)C(F)(F)F)C(F)(F)F	0.318 ± 0.031
C1CCCCCC1 [cycloheptane] + CCCCCCCCCCn1cc[n+](CCCCCCCCCC)c1C.O=S(=O)([N-]S(=O)(=O)C(F)(F)F)C(F)(F)F	3.17 ± 0.22
C1CCCCC1 [cyclohexane] + CCCCCCCCCCn1cc[n+](CCCCCCCCCC)c1C.O=S(=O)([N-]S(=O)(=O)C(F)(F)F)C(F)(F)F	1.32 ± 0.085
CCCCCCCCCC [decane] + CCCCCCCCCCn1cc[n+](CCCCCCCCCC)c1C.O=S(=O)([N-]S(=O)(=O)C(F)(F)F)C(F)(F)F	3.56 ± 0.24
ClCCl [dichloromethane] + CCCCCCCCCCn1cc[n+](CCCCCCCCCC)c1C.O=S(=O)([N-]S(=O)(=O)C(F)(F)F)C(F)(F)F	0.33 ± 0.032
CCOCC [diethyl ether] + CCCCCCCCCCn1cc[n+](CCCCCCCCCC)c1C.O=S(=O)([N-]S(=O)(=O)C(F)(F)F)C(F)(F)F	0.746 ± 0.049
CC(C)OC(C)C [diisopropyl ether] + CCCCCCCCCCn1cc[n+](CCCCCCCCCC)c1C.O=S(=O)([N-]S(=O)(=O)C(F)(F)F)C(F)(F)F	1.12 ± 0.071
CCO [ethanol] + CCCCCCCCCCn1cc[n+](CCCCCCCCCC)c1C.O=S(=O)([N-]S(=O)(=O)C(F)(F)F)C(F)(F)F	1.27 ± 0.082
CCc1ccccc1 [ethylbenzene] + CCCCCCCCCCn1cc[n+](CCCCCCCCCC)c1C.O=S(=O)([N-]S(=O)(=O)C(F)(F)F)C(F)(F)F	0.652 ± 0.045

same assay, conditions: 332.45 K; 101 kPa; Liquid; Chromatography; x1 = 0

SMILES	activity coefficient
CC#N [acetonitrile] + CCn1cc[n+](C)c1.CS(=O)(=O)[O-]	0.836 ± 0.054
CCCC=O [butanal] + CCn1cc[n+](C)c1.CS(=O)(=O)[O-]	3.51 ± 0.24
ClCCl [dichloromethane] + CCn1cc[n+](C)c1.CS(=O)(=O)[O-]	1.3 ± 0.084
CCOCC [diethyl ether] + CCn1cc[n+](C)c1.CS(=O)(=O)[O-]	18 ± 1.2
CC(C)OC(C)C [diisopropyl ether] + CCn1cc[n+](C)c1.CS(=O)(=O)[O-]	67.7 ± 4.6
CCO [ethanol] + CCn1cc[n+](C)c1.CS(=O)(=O)[O-]	0.405 ± 0.034

same assay, conditions: 332.85 K; 101 kPa; Liquid; Chromatography; x1 = 0

SMILES	activity coefficient
c1ccccc1 [benzene] + CCCCCC[n+]1ccn(C)c1.FC(F)(F)C(F)(F)[P-](F)(F)(F)(C(F)(F)C(F)(F)F)C(F)(F)C(F)(F)F	0.552 ± 0.04
CCCCO [butan-1-ol] + CCCCCC[n+]1ccn(C)c1.FC(F)(F)C(F)(F)[P-](F)(F)(F)(C(F)(F)C(F)(F)F)C(F)(F)C(F)(F)F	2.32 ± 0.16
CCC(C)=O [butanone] + CCCCCC[n+]1ccn(C)c1.FC(F)(F)C(F)(F)[P-](F)(F)(F)(C(F)(F)C(F)(F)F)C(F)(F)C(F)(F)F	0.195 ± 0.029
C1CCCCCC1 [cycloheptane] + CCCCCC[n+]1ccn(C)c1.FC(F)(F)C(F)(F)[P-](F)(F)(F)(C(F)(F)C(F)(F)F)C(F)(F)C(F)(F)F	13.2 ± 0.9
C1CCCCC1 [cyclohexane] + CCCCCC[n+]1ccn(C)c1.FC(F)(F)C(F)(F)[P-](F)(F)(F)(C(F)(F)C(F)(F)F)C(F)(F)C(F)(F)F	4.17 ± 0.28
CCCCCCCCCC [decane] + CCCCCC[n+]1ccn(C)c1.FC(F)(F)C(F)(F)[P-](F)(F)(F)(C(F)(F)C(F)(F)F)C(F)(F)C(F)(F)F	19 ± 1.3
ClCCl [dichloromethane] + CCCCCC[n+]1ccn(C)c1.FC(F)(F)C(F)(F)[P-](F)(F)(F)(C(F)(F)C(F)(F)F)C(F)(F)C(F)(F)F	0.699 ± 0.047
CCOCC [diethyl ether] + CCCCCC[n+]1ccn(C)c1.FC(F)(F)C(F)(F)[P-](F)(F)(F)(C(F)(F)C(F)(F)F)C(F)(F)C(F)(F)F	0.866 ± 0.055

Source: the NIST ThermoML archive (doi:10.1021/je200195q)
